Assay results published in a flash point compilation (Sun et al. 2020).
Where a name gives a salt, the structure may show the parent alone.

SMILES	flash point
CC(C)(C)O [2-methylpropan-2-ol]	11.00 °C
CC1(C)[C@@H]2CC[C@@]1(C)C(=O)C2 [(1R,4R)-1,7,7-trimethylbicyclo[2.2.1]heptan-2-one]	47.00 °C
Clc1cc(Cl)cc(Cl)c1 [1,3,5-trichlorobenzene]	107.00 °C
CCCCCCCCCCCCCOC(=O)c1ccccc1C(=O)OCCCCCCCCCCCCC [ditridecyl benzene-1,2-dicarboxylate]	238.00 °C
NCCNCCNCCN [N'-[2-(2-aminoethylamino)ethyl]ethane-1,2-diamine]	135.00 °C
CCC1CO1 (stereo unspecified) [2-ethyloxirane]	-12.00 °C
c1ccc(Oc2ccccc2)cc1 [phenoxybenzene]	115.00 °C
CC(=O)OC1CC2CCC1(C)C2(C)C (stereo unspecified) [(1,7,7-trimethyl-2-bicyclo[2.2.1]heptanyl) acetate]	88.00 °C
ClC=CCl [1,2-dichloroethene]	4.00 °C
Nc1ccc(Oc2ccc(N)cc2)cc1 [4-(4-aminophenoxy)aniline]	219.00 °C
Cc1ccc(S(N)(=O)=O)cc1 [4-methylbenzenesulfonamide]	202.00 °C
c1cc2c3c(cccc3c1)CC2 [1,2-dihydroacenaphthylene]	125.00 °C
CCCCCCCCCCCCS [dodecane-1-thiol]	88.00 °C
CC1OC(C)OC(C)OC(C)O1 (stereo unspecified) [2,4,6,8-tetramethyl-1,3,5,7-tetraoxocane]	36.00 °C
CCCCCCCCCC=O [decanal]	85.00 °C
CCCCCC(=O)CC [octan-3-one]	46.00 °C
C/C=C/CC#N [(E)-pent-3-enenitrile]	38.00 °C
CS [methanethiol]	-18.00 °C
O=C(O)C(Br)Br [2,2-dibromoacetic acid]	113.00 °C
C=C(C)c1ccccc1 [prop-1-en-2-ylbenzene]	54.00 °C
CCC[N+](=O)[O-] [1-nitropropane]	34.00 °C
Nc1ccc([N+](=O)[O-])cc1Cl [2-chloro-4-nitroaniline]	205.00 °C
C=C(C)C=O [2-methylprop-2-enal]	2.00 °C
c1ccc(C2CO2)cc1 (stereo unspecified) [2-phenyloxirane]	79.00 °C
c1ccc2ccccc2c1 [naphthalene]	88.00 °C

The remaining lines, values ahead:

flash point	SMILES
13.00 °C	CCCCNC [N-methylbutan-1-amine]
74.00 °C	COC(C)COC(C)CO (stereo unspecified) [2-(2-methoxypropoxy)propan-1-ol]
57.00 °C	CCOC(=O)CC(C)=O [ethyl 3-oxobutanoate]
26.00 °C	CCCCCOC=O [pentyl formate]
54.00 °C	CCC(CC)COC(C)=O [2-ethylbutyl acetate]
28.00 °C	CC(C)OB(OC(C)C)OC(C)C [tripropan-2-yl borate]
210.00 °C	CCCCC(CC)COC(=O)CCCCCCCCC(=O)OCC(CC)CCCC (stereo unspecified) [bis(2-ethylhexyl) decanedioate]
129.00 °C	OCCOCc1ccccc1 [2-phenylmethoxyethanol]
32.00 °C	CCCC(C)OC(C)=O (stereo unspecified) [pentan-2-yl acetate]
99.00 °C	CC(O)CO (stereo unspecified) [propane-1,2-diol]
121.00 °C	COCC(C)OCC(C)OC(C)CO (stereo unspecified) [2-[1-(1-methoxypropan-2-yloxy)propan-2-yloxy]propan-1-ol]
48.00 °C	CC(C)CCCCCOC(=O)COc1ccc(Cl)cc1Cl [6-methylheptyl 2-(2,4-dichlorophenoxy)acetate]
-9.00 °C	CCC(C)N (stereo unspecified) [butan-2-amine]
113.00 °C	COc1cc(CNC(=O)CCCC/C=C/C(C)C)ccc1O
93.00 °C	CC(CCO)CC(C)(C)C (stereo unspecified) [3,5,5-trimethylhexan-1-ol]
41.00 °C	CCCCC(C)O (stereo unspecified) [hexan-2-ol]
